# Measurements from US20170071944A1, “MODULATORS OF TOLL-LIKE RECEPTORS FOR THE TREATMENT OF HIV” (Gilead Sciences, Inc., priority 2015, published 2017).
# Values joined by “and” are separate entries in the source; they are usually repeats but may differ in a detail not shown here. Equal values may be shown once.
# Assays:
# [1] = tested on: serum cytokines and chemokines associated with TLR8 activation; test: Induction of cytokines and chemokines in Rhesus macaques (serum, Luminex); assay type: in vivo
# Method: The TLR8 modulator of Example 65 was formulated in 2% ethanol, 40% polyethylene glycol 300, and 58% 0.01 N hydrochloric acid. Oral solutions of formulations were prepared by dissolving a sufficient amount of the compound in the 2% ethanol, 40% polyethylene glycol 300, and 58% 0.01 N hydrochloric acid vehicle to arrive at 0.5, 1.5, or 5 mg/ml of Example 65. Rhesus macaques were dosed orally with 1.2 to 2 mls/kg to achieve dose levels of 1, 3, 6, or 10 mg/kg Example 65. Blood samples were collected at 2, 4, 8, 12, 24 and 48 hours postdose (FIG. 5) and allowed to clot under ambient conditions prior to centrifugation to obtain serum. The indicated cytokines and chemokines were quantified in serum with a multiplexed Luminex® assay following the manufacturer's instructions (Life Technologies). […] At 10 and 6 mg/kg, IL-12, IL-1RA and MCP-1 peaked near 10 ng/ml and IL-6 peaked at 1 ng/ml.
# [2] = tested on: HIV-specific polyfunctional CD8 T cells; test: Induced HIV-specific polyfunctional CD8+ T cells in PBMC cultures from HIV-1 infected subjects on cART; assay type: cell-based, human; conditions: for Median HIV-specific polyfunctional CD8 T cells (% proliferating CD8+ cells double positive for IFN-γ and TNF-α): 5 subjects, vehicle 0.73% (Example 15 group), 0.13% (Example 98 group)
# [3] = tested on: HIV-1 expression in PBMC cultures from HIV-1 infected subjects on cART; test: Induced HIV-1 expression in PBMC cultures from HIV-1 infected subjects on cART (HIV-1 RNA in culture supernatant, COBAS TaqMan); assay type: cell-based, human; conditions: for Fold HIV-1 Activation, Geometric Mean with ≧2-Fold-Activation / Fold HIV-1 Activation, Range with ≧2-Fold-Activation: N = 5 subjects
# Method: In some experiments, IL-15, the TLR8 modulating compound of Example 15 or the combination of IL-15 and Example 15 were used at the indicated concentrations (Table 4). The cultures were maintained in the presence of antivirals (elvitegravir and efavirenz at 100 nM each) to prevent viral spread and amplification in order to measure the quantity of virus produced (latency reversal) by the TLR8 modulating compounds. At the end of the incubation period, cell-free culture supernatants were harvested and HIV-1 RNA levels were quantified by the COBAS® AmpliPrep/COBAS®TaqMan HIV-1 Test, v2.0 (Roche).
# In each table, fold-activation is calculated as a ratio of HIV-1 RNA copies per ml of cell culture supernatants from TLR8 agonist treated samples and DMSO treated controls. Geometric mean fold-activation from three independent incubation samples for each condition of each subject's PBMCs.
# To assess if the latency reversal induced by TLR8 agonism could further potentiate latency reversal by a separate mechanisms, we treated cells as described above with IL-15, Example 15, or a combination of IL-15 and Example 15 (Table 4).
# [4] = Example 15 1000 nM and/or IL-15 1 nM, subjects 205-210
compound,measurement,setting,value
CCCC[C@](C)(CNC(C)=O)Nc1nc(N)nc2cc(Cl)cnc12 [Example 65],"Induction of cytokines associated with TLR8 activation, including IL-12, IL-6, IL-1RA and MCP-1","[1]; oral, 1, 3, 6, or 10 mg/kg",induced in a dose-dependent manner
same,Time of peak cytokine concentrations post-dose,"[1]; oral, 1, 3, 6, or 10 mg/kg",2 h
same,Serum IL-1RA peak,"[1]; oral, 10 and 6 mg/kg",~10 ng/mL
same,Serum IL-6 peak,"[1]; oral, 10 and 6 mg/kg",1 ng/mL
same,Serum IL-12 peak,"[1]; oral, 10 and 6 mg/kg",~10 ng/mL
same,Serum MCP-1 peak,"[1]; oral, 10 and 6 mg/kg",~10 ng/mL
CCCCC(C)(CO)Nc1nc(N)nc2cc(F)cnc12 (stereo not drawn) [Example 98],Patients in whom increases were seen,[2]; 100 nM,4 of 5
same,Median HIV-specific polyfunctional CD8 T cells (% proliferating CD8+ cells double positive for IFN-γ and TNF-α),[2]; 100 nM with HIV peptide pool,0.93%
same,Patients in whom increases were seen,[2]; 1000 nM,4 of 5
same,Increase of median HIV-specific polyfunctional CD8 T cells,"[2]; 1000 nM combined with the HIV specific peptide pool, p<0.05",7.1 fold
same,Median HIV-specific polyfunctional CD8 T cells (% proliferating CD8+ cells double positive for IFN-γ and TNF-α),[2]; 1000 nM with HIV peptide pool,0.92%
"CCC[C@@H](CO)Nc1nc(N)nc2cc(F)c(F)cc12 [Example 119, (S)-2-((2-amino-6,7-difluoroquinazolin-4-yl)amino)pentan-1-ol, reference compound]",Fold HIV-1 Activation,"[3]; 156 nM, 4 days, individual subjects 151-155, vs DMSO",3.6 fold and 4.9 fold and 0.4 fold
same,"Fold HIV-1 Activation, Geometric Mean with ≧2-Fold-Activation",[3]; 156 nM,4.2 fold
same,"Fold HIV-1 Activation, Range with ≧2-Fold-Activation",[3]; 156 nM,3.6-4.9 fold
same,N with ≧2-Fold-Activation,"[3]; 156 nM, subjects 151-155",2 of 3
same,N with ≧2-Fold-Activation (%),"[3]; 156 nM, subjects 151-155",(67) %
same,Fold HIV-1 Activation,"[3]; 625 nM, 4 days, individual subjects 151-155, vs DMSO",3.4 fold and 4.1 fold and 4.8 fold and 0.3 fold and 0.5 fold
same,"Fold HIV-1 Activation, Geometric Mean with ≧2-Fold-Activation",[3]; 625 nM,4.1 fold
same,"Fold HIV-1 Activation, Range with ≧2-Fold-Activation",[3]; 625 nM,3.4-4.8 fold
same,N with ≧2-Fold-Activation,"[3]; 625 nM, subjects 151-155",3 of 5
same,N with ≧2-Fold-Activation (%),"[3]; 625 nM, subjects 151-155",(60) %
same,Fold HIV-1 Activation,"[3]; 2,500 nM, 4 days, individual subjects 151-155, vs DMSO",4.1 fold and 4.2 fold and 3.2 fold and 5.2 fold and 2.2 fold
same,"Fold HIV-1 Activation, Geometric Mean with ≧2-Fold-Activation","[3]; 2,500 nM",3.6 fold
same,"Fold HIV-1 Activation, Range with ≧2-Fold-Activation","[3]; 2,500 nM",2.2-5.2 fold
same,N with ≧2-Fold-Activation,"[3]; 2,500 nM, subjects 151-155",5 of 5
same,N with ≧2-Fold-Activation (%),"[3]; 2,500 nM, subjects 151-155",(100) %
same,"Fold HIV-1 Activation, Geometric Mean with ≧2-Fold-Activation","[3]; 156, 625, or 2500 nM",4.1 fold
same,"Fold HIV-1 Activation, Range with ≧2-Fold-Activation","[3]; 156, 625, or 2500 nM",2.2-5.2 fold
same,N with ≧2-Fold-Activation,"[3]; 156, 625, or 2500 nM, subjects 151-155",5 out of 5 and 5 of 5
"IL-15: interleukin IL-15, used at 1 nM as a separate latency reversal mechanism","Fold HIV-1 Activation, Geometric Mean","[3]; Example 15 1000 nM and/or IL-15 1 nM, N = 6 subjects",2.9 fold
same,Fold HIV-1 Activation,"[3]; Example 15 1000 nM and/or IL-15 1 nM, individual subjects 205-210, vs DMSO",2.6 fold and 3.3 fold and 4.4 fold and 6.3 fold and 1.4 fold and 1.6 fold
same,N with ≧2-Fold-Activation,[3]; [4],4 of 6
same,N with ≧2-Fold-Activation (%),[3]; [4],66%
